Reference: patent publication US20230257366A1, “SULFUR-CONTAINING ISOINDOLINE DERIVATIVE, AND PREPARATION METHOD THEREFOR AND MEDICAL USE THEREOF” (JIANGSU HENGRUI PHARMACEUTICALS CO., LTD., priority 2020, published 2023)

Experiments:
[1] = Pharmacokinetic evaluation in mice after intragastric administration (LC/MS/MS); type: in vivo; conditions: female, mouse, plasma, po, mice, intragastric, 2 mg/kg
Description: The drug concentration in the plasma of the test animals (mice) at different time points after intragastric administration of the compound of Example 6 and the control example CC-92480 was determined by an LC/MS/MS method. The pharmacokinetic behavior of the compound of the present disclosure in mice was studied and its pharmacokinetic profile was evaluated.
(§1) Compound of Example 6 and control example CC-92480.
Eighteen mice, female, purchased from Beijing Vital River Laboratory Animal Technology Co., Ltd., with animal production license number of SCXK (Shanghai) 2017-0005.
A certain amount of compound of Example 6 was weighed, dissolved by adding 5% by volume of DMSO and 5% Tween 80 (Shanghai Titan Scientific Co., Ltd.), and then prepared into a 0.1 mg/mL clear solution by adding 90% normal saline.
A certain amount of the control example CC-92480 was weighed, dissolved by adding 5% by volume of DMSO and 5% Tween 80 (Shanghai Titan Scientific Co., Ltd.), and then prepared into a 0.1 mg/mL clear solution by adding 90% normal saline.
Nine mice were intragastrically administered with the compound of Example 6 at a dose of 2 mg/kg and at a volume of 0.2 mL/10 g.
Nine mice were intragastrically administered with the control example CC-92480 at a dose of 2 mg/kg and at a volume of 0.2 mL/10 g.
Mice were intragastrically administered with the compound of Example 6 and the control example CC-92480, and 0.2 mL of blood was collected before the administration and 0.25 h, 0.5 h, 1.0 h, 2.0 h, 4.0 h, 6.0 h, 8.0 h, 11.0 h and 24.0 h after the administration (3 animals at each time point), placed in EDTA-K2 anticoagulation tubes, and centrifuged at 10,000 rpm for 1 min(4° C.). Plasma was separated within 1 h, and stored at −20° C. for testing. The process from blood collection to centrifugation was performed under an ice bath.
The content of the test compounds at different concentrations in mouse plasma after the administration was determined: 25 μL of mouse plasma at each time point after the administration was mixed with 50 μL (100 ng/mL) of internal standard solution camptothecin (National Institutes for Drug Control) and 175 μL of acetonitrile. The mixture was vortexed for 5 min and centrifuged for 10 min (3700 rpm/min), and 1 μL of the supernatant of the plasma sample was taken for LC/MS/MS assay (API4000 triple quadrupole tandem mass spectrometer, Applied Biosystems, USA; Shimadzu, LC-30AD ultra high performance liquid chromatography system, Shimadzu, Japan).

NCI-H929 cells = test: NCI-H929 proliferation experiment (CellTiter-Glo, 5 days); type: cell-based; conditions: Homo sapiens, 120 h, 5 days incubation, read-out: IC50 values for the inhibition of proliferation of NCI-H929 cells
Description: The following method was used to determine the inhibitory activity of the compounds of the present disclosure on the proliferation of NCI-H929 cells. The experimental method was briefly described as follows.
NCI-H929 cells (ATCC, CRL-9068) were cultured in a complete medium (RPMI 1640 medium (Hyclone, SH30809.01) containing 10% fetal bovine serum (Corning, 35-076-CV) and 0.05 mM 2-mercaptoethanol (Sigma, M3148)). On the first day of the experiment, NCI-H929 cells were seeded in a 96-well plate at a density of 6000 cells/well with a complete medium to form 100 μL of cell suspension per well, and 10 μL of test compound prepared in a complete medium and diluted in a gradient was added to each well. The compound was firstly dissolved in DMSO, with an initial concentration of 10 mM, and then subjected to serial dilution at a 5-fold concentration gradient for a total of 9 concentration points, with a blank control of 100% DMSO. Another 5 μL of the compound dissolved in DMSO was added to 95 μL of complete medium, i.e., the compound was diluted 20-fold with the complete medium. Finally the compound diluted in the complete medium at 10 μL/well was added to the cell suspension, wherein the final concentrations of the compound were 9 concentration points obtained by 5-fold gradient dilution starting from 50 μM. A blank control containing 0.5% DMSO was set. The plate was incubated in a cell incubator at 37° C. with 5% CO2 for 5 days. On the sixth day, the 96-well cell culture plate was taken out, added with a CellTiter-Glo® luminescent cell activity detect reagent (Promega, G7573) at 50 μL/well, left to stand at room temperature for 10 min, and read for the luminescence signal values using a multi-mode microplate reader (PerkinElmer, EnVision 2015). IC50 values for the inhibitory activity of the compounds were calculated using Graphpad Prism software, with the results shown in Table 1.

[2] = Plasma stability in monkey plasma (LC-MS/MS); type: in vitro ADME; conditions: cryopreserved monkey plasma; monkey plasma, 37° C., 1 μM; read-out: T1/2 (min)/monkey
Description: The stability of the compound of Example 6 and the control example CC-92480 after incubation in cryopreserved monkey plasma at 37° C. for 0 min, 15 min, 30 min, 60 min, 120 min, 180 min and 240 min was determined quantitatively by LC-MS/MS.
as §1
Monkey plasma was purchased from Shanghai Medicilon Inc.
A certain amount of the compound of Example 6 was weighed and prepared with DMSO to obtain a 30 mM stock solution. A certain volume of the stock solution was diluted into a solution I at a concentration of 1600 μM with DMSO; and a certain volume of the solution I at 1600 μM was diluted with 50% methanol to obtain a working solution II at a concentration of 16 μM. A 30 mM stock solution, a 1600 μM solution I′, and a 16 μM working solution II′ of CC-92480 were prepared as described above.
5 μL of the working solutions at 16 μM of the compound of Example 6 and the control example CC-92480 were each added to 75 μL of plasma to make the final concentration of the compounds of 1 μM. The samples were incubated under a 37° C. water bath for 0 min, 15 min, 30 min, 60 min, 90 min, 120 min, and 180 min. […] The supernatant was analyzed by LC-MS with a sample injection volume of 2 μL.

- Vd/F ([1]; read-out: Apparent volume of distribution Vz/F): 1.79 L/kg
- AUC ([1]; read-out: Area under curve AUC): 4690 ng·h/mL
- CL/F ([1]; read-out: Clearance CL/F): 7.1 mL/min/kg
- half-life ([1]; read-out: Half-life T½ (converted)): 2.9 h
- Cmax ([1]; read-out: Plasma concentration Cmax): 799 ng/mL
- MRT ([1]; read-out: Residence time MRT): 4.6 h
- IC50 (NCI-H929 cells): 0.02 nM
- half-life at 1 µM [2]: 806 min
SMILES: N#Cc1ccc(N2CCC(Sc3ccc(COc4cccc5c4CN([C@H]4CCC(=O)NC4=O)C5=O)cn3)CC2)c(F)c1 [Compound 6, (S)-4-(4-((5-(((2-(2,6-dioxopiperidin-3-yl)-1-oxoisoindolin-4-yl)oxy)methyl)pyridin-2-yl)thio)piperidin-1-yl)-3-fluorobenzonitrile]
